From US20030235904A1, “Bacterial parts washer, composition and method of use” (Osprey Biotechnics, Inc., priority 2002, published 2003)

Experiments:
[1] = tested on: Pseudomonas putida NRRL-B-18118; assay: Shelf-life of the pseudomonad stored with NEODOL 91-6 (plate counts); type: cell-based
Procedure: The Pseudomonas putida NRRL-B-18118 was stabilized in a liquid according to the method described in U.S. Pat. No. 5,980,747 to Vandenbergh. Briefly, sodium nitrate was mixed with water in an amount of 0.26 gm per 100 gm (mL) of water. This produced a 0.26% solution by weight. To this solution, Pseudomonas putida NRRL-B-18118 was added in an amount to provide a final concentration of 1.4×10^8 CFU/mL of the pseudomonad and a final concentration of nitrate of 0.13%. Optionally, a buffering amount of monoammonium phosphate was added at a ratio between about 1:1 to 125:1 sodium nitrate to monoammonium phosphate to enhance the preservation of the pseudomonad at 25° C.
Pseudomonas putida NRRL-B-18118 was stabilized in a liquid according as described in Example 1. The stabilized pseudomonads were then mixed with the ethoxylated surfactant NEODOL 91-6 at the appropriate amount to arrive at the appropriate fixed concentration. The solutions were incubated at 25° C. At various times, aliquots were removed and plated on agar plates and the colony forming units (CFU) per mL were recorded.

[2] = tested on: Pseudomonas putida NRRL-B-18118; assay: Oxygen uptake (BOD analyzer) with NEODOL 91-6 and 1% motor oil; type: cell-based; set-up: oxygen uptake: unit not given here; conditions: for oxygen uptake: 25° C.
Procedure: The assay measured oxygen uptake of Pseudomonas putida NRRL-B-18118 in the presence 0.001 to 1.0% NEODOL 91-6 and 1% motor oil in a minimal media broth. The pseudomonads were suspended at 10^8 CFU/mL and placed in a HATCH Model 2173B biological oxygen demand (BOD) analyzer at 25° C. […] was measured over a 48 hour time period.

“(C9-C11) alkyl alcohol ethoxylate (polyethyleneglycol-(C9-C11)-ether) [NEODOL 91-6]” was tested, and the “CFU/mL (time)” value ([1]; 0.5% NEODOL 91-6, 25° C., 1 Month) was 5.0 × 10^7 CFU/mL, the “CFU/mL (time)” value ([1]; 0.5% NEODOL 91-6, 25° C., 3 Months) was 1.0 × 10^7 CFU/mL and the “CFU/mL (time)” value ([1]; 0.5% NEODOL 91-6, 25° C., 5 Months) was 3.0 × 10^7 CFU/mL. The “CFU/mL (time)” value ([1]; 0.5% NEODOL 91-6, 25° C., 7 Months) was 6.0 × 10^6 CFU/mL, the “CFU/mL (time)” value ([1]; 0.5% NEODOL 91-6, 25° C., Zero (h)) was 1.4 × 10^8 CFU/mL and the “CFU/mL (time)” value ([1]; 1.0% NEODOL 91-6, 25° C., 1 Month) was 5.0 × 10^7 CFU/mL. For the same substance, the “CFU/mL (time)” value ([1]; 1.0% NEODOL 91-6, 25° C., 3 Months) was 1.5 × 10^7 CFU/mL, the “CFU/mL (time)” value ([1]; 1.0% NEODOL 91-6, 25° C., 5 Months) was 1.0 × 10^7 CFU/mL and the “CFU/mL (time)” value ([1]; 1.0% NEODOL 91-6, 25° C., 7 Months) was 1.0 × 10^6 CFU/mL. For the same substance, the “CFU/mL (time)” value ([1]; 1.0% NEODOL 91-6, 25° C., Zero (h)) was 1.4 × 10^8 CFU/mL, the “CFU/mL (time)” value ([1]; 5.0% NEODOL 91-6, 25° C., 1 Month) was 5.0 × 10^7 CFU/mL and the “CFU/mL (time)” value ([1]; 5.0% NEODOL 91-6, 25° C., 3 Months) was 1.4 × 10^7 CFU/mL. For the same substance, the “CFU/mL (time)” value ([1]; 5.0% NEODOL 91-6, 25° C., 5 Months) was 1.0 × 10^7 CFU/mL, the “CFU/mL (time)” value ([1]; 5.0% NEODOL 91-6, 25° C., 7 Months) was 1.0 × 10^6 CFU/mL and the “CFU/mL (time)” value ([1]; 5.0% NEODOL 91-6, 25° C., Zero (h)) was 1.4 × 10^8 CFU/mL. The “effect on shelf-life of Pseudomonas putida NRRL-B-18118” value ([1]; NEODOL 91-6 0.5 to 5% in the storage solution) was “not adversely affected”, the “decrease in viability of the pseudomonads” value ([1]; stored in the presence of NEODOL 91-6, over seven months) was “two log decrease” and the oxygen uptake ([2]; 0.001% NEODOL 91-6, 1% motor oil, 0 h) was 0. It also gave an oxygen uptake ([2]; 0.001% NEODOL 91-6, 1% motor oil, 12 h) of 40, an oxygen uptake ([2]; 0.001% NEODOL 91-6, 1% motor oil, 21 h) of 100 and an oxygen uptake ([2]; 0.001% NEODOL 91-6, 1% motor oil, 28 h) of 140. For the same substance, the oxygen uptake ([2]; 0.001% NEODOL 91-6, 1% motor oil, 31 h) was 160, the oxygen uptake ([2]; 0.001% NEODOL 91-6, 1% motor oil, 48 h) was 200 and the oxygen uptake ([2]; 0.01% NEODOL 91-6, 1% motor oil, 0 h) was 0. It also gave an oxygen uptake ([2]; 0.01% NEODOL 91-6, 1% motor oil, 12 h) of 40, an oxygen uptake ([2]; 0.01% NEODOL 91-6, 1% motor oil, 21 h) of 40 and an oxygen uptake ([2]; 0.01% NEODOL 91-6, 1% motor oil, 28 h) of 60. For the same substance, the oxygen uptake ([2]; 0.01% NEODOL 91-6, 1% motor oil, 31 h) was 60, the oxygen uptake ([2]; 0.01% NEODOL 91-6, 1% motor oil, 48 h) was 110 and the oxygen uptake ([2]; 0.1% NEODOL 91-6, 1% motor oil, 0 h) was 0. For the same substance, the oxygen uptake ([2]; 0.1% NEODOL 91-6, 1% motor oil, 12 h) was 20, the oxygen uptake ([2]; 0.1% NEODOL 91-6, 1% motor oil, 21 h) was 40 and the oxygen uptake ([2]; 0.1% NEODOL 91-6, 1% motor oil, 28 h) was 60. The oxygen uptake ([2]; 0.1% NEODOL 91-6, 1% motor oil, 31 h) was 80, the oxygen uptake ([2]; 0.1% NEODOL 91-6, 1% motor oil, 48 h) was 110 and the oxygen uptake ([2]; 0.5% NEODOL 91-6, 1% motor oil, 0 h) was 0. It also gave an oxygen uptake ([2]; 0.5% NEODOL 91-6, 1% motor oil, 12 h) of 20, an oxygen uptake ([2]; 0.5% NEODOL 91-6, 1% motor oil, 21 h) of 40 and an oxygen uptake ([2]; 0.5% NEODOL 91-6, 1% motor oil, 28 h) of 50. For the same substance, the oxygen uptake ([2]; 0.5% NEODOL 91-6, 1% motor oil, 31 h) was 70, the oxygen uptake ([2]; 0.5% NEODOL 91-6, 1% motor oil, 48 h) was 90 and the oxygen uptake ([2]; 1.0% NEODOL 91-6, 1% motor oil, 0 h) was 0. For the same substance, the oxygen uptake ([2]; 1.0% NEODOL 91-6, 1% motor oil, 12 h) was 10, the oxygen uptake ([2]; 1.0% NEODOL 91-6, 1% motor oil, 21 h) was 20 and the oxygen uptake ([2]; 1.0% NEODOL 91-6, 1% motor oil, 28 h) was 30. The oxygen uptake ([2]; 1.0% NEODOL 91-6, 1% motor oil, 31 h) was 50, the oxygen uptake ([2]; 1.0% NEODOL 91-6, 1% motor oil, 48 h) was 80 and the “function of the pseudomonads in the presence of NEODOL 91-6” value ([2]; tested NEODOL 91-6 concentrations, 48 hour time period) was “remained functional”.
